A short description of the series: High-throughput Equilibrium Solubility measurement. The format is physicochemical. The note with it: phosphate buffer, pH 6.8.

≈ marks a conversion by molar mass, not a printed value.

As to `N#Cc1c[nH]c2c(C(=O)N3CCN(CCc4ccc(F)cc4)CC3)cccc12` [compound 3, pruvanserin], the solubility (commonly the dissolved amount per volume that the medium holds) amounted to 17 µM (≈ 6.4 µg/mL).

The values are drawn from article PMC8513920 (Chemical Science, 2021).
